The text below walks through data of ChEMBL document CHEMBL1144055, “Mathemycin B, a new antifungal macrolactone from actinomycete species HIL Y-8620959” (1999).

Assay type in all cases: functional
One assay relates to Fusarium culmorum. In words: Antimicrobial activity against Fusarium culmorum assessed as drug concentration required to form 10 mm zone of inhibition by agar diffusion method.
Assay [1] is described as follows: Antimicrobial activity against Pellicularia sasakii JO3 assessed as drug concentration required to form 10 mm zone of inhibition by agar diffusion method.
The subject of assay [2] is Botrytis cinerea. In words: Antimicrobial activity against Botrytis cinerea DO1 assessed as drug concentration required to form 10 mm zone of inhibition by agar diffusion method.
Assay [3] deals with Botrytis cinerea. In words: Antimicrobial activity against Botrytis cinerea A06 assessed as drug concentration required to form 10 mm zone of inhibition by agar diffusion method. In general terms: In agar diffusion tests the substance spreads into inoculated agar from a disc or well.
The test system of a further assay is Alternaria mali. In words: Antimicrobial activity against Alternaria mali P37 assessed as drug concentration required to form 10 mm zone of inhibition by agar diffusion method.
The test system of a further assay is Oculimacula yallundae. In words: Antimicrobial activity against Pseudocercosporella herpotrichoides 008 assessed as drug concentration required to form 10 mm zone of inhibition by agar diffusion method.
The next assay relates to Parastagonospora nodorum. Nature of the assay: Antimicrobial activity against Leptosphaeria nodorum JO2 assessed as drug concentration required to form 10 mm zone of inhibition by agar diffusion method.
The subject of another assay is Phytophthora infestans. In words: Antimicrobial activity against Phytophthora infestans JO8 assessed as drug concentration required to form 10 mm zone of inhibition by agar diffusion method.

As for `C/C1=C\C(C)C(O)/C(C)=C/C(O[C@H]2O[C@H](CO)[C@@H](O)[C@H](O[C@@H]3O[C@H](CO)[C@@H](O)[C@H](O)[C@@H]3O)[C@@H]2O)C(O)C(C)C(O)CC(O)CC(O)C(C)C(O)CC(O)CC(O)C(C)C(O)CC(O)CC(O[C@@H]2O[C@H](C)[C@@H](O)[C@H](N)[C@H]2O)C(C)C(C(C)CC(C)CCCCCCN)OC(=O)CCC(C)C(O)CC/C=C/C(C)C1O` (some centres undefined) [MATHEMYCIN B], the MAC was 62.5 mg/L in the assay on Fusarium culmorum; 62.5 mg/L in assay [1]; 62.5 mg/L in the assay on Botrytis cinerea [2]; 62.5 mg/L in the assay on Botrytis cinerea [3]; 62.5 mg/L in the assay on Alternaria mali; 250 mg/L in the assay on Oculimacula yallundae. Also, the MAC in the assay with Parastagonospora nodorum was 125 mg/L.

Consider MANCOZEB, for which, in the assay on Phytophthora infestans, the MAC is 62.5 mg/L.

For the molecule maneb, the MAC in the assay on Oculimacula yallundae came to 125 mg/L.
